Results taken from publication PMC10447463, “Data-mining unveils structure–property–activity correlation of viral infectivity enhancing self-assembling peptides” (Nature Communications, 2023).

Key:
[1] = system: HIV-1 infection of TZM-bl cells; experiment: HIV-1 infectivity enhancement assay, β-galactosidase luminescence; assay type: cell-based; conditions: for Rel-EFC: infection relative to EF-C (QCKIKQIINMWQ = 1); for Log10 Infection Rel EFC: log10 of infection relative to EF-C; for Log Infectivity: Log10 infection relative to EF-C, asymmetric std dev errors; for Log10 Infection Rel EF-C: HIV-1 infection of TZM-bl cells; for Log10 of Rel to EFC (Feb2021): Log10 of infection relative to EF-C, all peptides of FigS16; for Abs. Inf.: β-galactosidase luminescence; for Abs. Inf. / RLU s-1: absolute infection rate, peptide 1.3 µM on cells, virus preincubated 10 min with fibrils, read 3 days post infection, mean of triplicate; for Log10 Inf. rel. to EF-C: log10 of HIV-1 infection of TZM-bl cells relative to EF-C (EF-C = 0)
[2] = Conversion rate (CR) assay with fluorescamine; assay type: physicochemical; parameters: key to CR: % = 100−100×filtrate/original fluorescence intensity
Protocol: For ATR FT–IR spectroscopy measurements, 200 µL of the respective 1 mg/mL PNF solution was lyophilized and the resulting powder used for measurement. All spectra were recorded on a Bruker Tensor 27 spectrometer with a diamond crystal as ATR element (PIKE MiracleTM, spectral resolution 2 cm^-1). Every sample was measured with 64 scans. Data were analyzed with OriginLab software and calculation of β–sheet content was conducted according to a previous report. TEM. For TEM measurements 5 µL of PNF fibrils (1 mg/mL) were placed on copper grids coated with carbon and formvar layer (300 mesh, Plano GmbH). After 10 min incubation time, the grids were staining with 4% uranyl acetate solution for 2.5 min and washed with water. Measurements were performed on a Jeol 1400 electron microscope with 120 kV acceleration voltage. CR Assay. For the determination of the amount of peptide monomer converting into nanostructures the amine reactive dye fluorescamine was used analogous to a previous reported protocol. Briefly, 100 µL of the preformed PNF solution was centrifuged in a Vivaspin 500 tube (3 kDa MWCO) to separate fibers from free peptide monomer (16200 x g, 4 °C, 45 min). The filtrate and 100 μL of the non-filtered PNF sample were lyophilized and dissolved in 30 μL DMSO. 10 μL of the filtrate and non-filtered DMSO samples were submitted in a black UV Star® 384 microliter well–plates (Greiner bio–one) and 3 μL of the fluorescamine solution (10 mg/mL, DMSO) was added to measure the fluorescence enhancement. After 20 min of incubation at RT, fluorescence was recorded on an Infinite® M1000 PRO microplate reader (Tecan) at λem = 470 nm upon excitation at λex = 365 nm with 10 nm bandwidths and multiple reads per well (3×3). Measurements were repeated in triplicates and averaged with standard deviation. All values were calculated as n-fold fluorescence enhancement (DMSO only as a reference was set to 1). The conversion rate CR was defined according to the equation Eq. (3).3 CR=100−100×fluorescenceintensityfiltrate/fluorescenceintensityoriginal[%]

[3] = Turbidity, derived count rate of scattered light; assay type: physicochemical; conditions: for Count Rate: derived count rate of scattered light (turbidity); for Log10 Count Rate: turbidity, derived count rate of scattered light, data of Figure 2D
[4] = Fig. S7 panel A (plotted against β-sheet content), TZM-bl cells
[5] = Fig. S7 panel B (plotted against CR), rounded to two decimals, TZM-bl cells
[6] = Log10 of infection rate relative to EF-C, Figure 3A source data
[7] = infection rate relative to EF-C, log10, data of Figure 2D
[8] = infection rate relative to EF-C, log10, source data of Figure 2C
[9] = Fig. S7 panel B, conversion rate, fluorescamine assay
[10] = conversion rate, fluorescamine assay
[11] = absolute HIV-1 infection signal, TZM-bl cells
[12] = HIV-1 infection relative to EF-C, Fig 23 plot, panels A and B, mean of 3 values
[13] = HIV-1 infection relative to EF-C, Fig 23 plot, single data point, replicate 1
[14] = HIV-1 infection relative to EF-C, Fig 23 plot, single data point, replicate 2
[15] = HIV-1 infection relative to EF-C, Fig 23 plot, single data point, replicate 3
[16] = absolute infection signal, HIV-1 on TZM-bl cells
[17] = n-fold infection vs virus only, relative to that of EF-C, 1.3 µM peptide
[18] = conversion of monomer to nanostructures, 3 kDa MWCO filtration, fluorescamine, ex 365 / em 470 nm, triplicate

Row | Substance | Rel-EFC ([1]; 1.3 µM peptide) | Log10 Infection Rel EFC ([1]; 1.3 µM peptide) | Log Infectivity [1, 4] | Log Infectivity [1, 5] | Log10 Infection Rel EF-C [1, 6] | Log10 Infection Rel EF-C [1, 7] | Log10 Infection Rel EF-C [1, 8] | CR / % [2, 9] | CR [2, 10] | Count Rate [3] | Log10 Count Rate [3] | Log10 of Rel to EFC (Feb2021) [1] | also measured
1 | KIKIKIQI | 0,1 | -1,01 | -1.014 | -1.01 | -1.01 | -1.014 | -1.014 | 80% | 80 | 999.1 | 3 | – | –
2 | KIKQII | 0 | -2,31 | -2.308 | -2.31 | -2.31 | -2.308 | -2.308 | 13% | 12.97 | 122 | 2.086 | – | –
3 | KIKIQIII | 0,35 | -0,45 | -0.4521 | -0.45 | -0.45 | -0.4521 | -0.4521 | 87% | 87 | 94.97 | 1.978 | -0.45 | –
4 | CEFEFQFNMWQ | 0,14 | -0,85 | -0.8509 | -0.85 | -0.85 | -0.8509 | -0.8509 | 98.6% | 98.63 | 186.3 | 2.27 | -0.85 | –
5 | EIKIQINM | 0,1 | -1 | -1.001 | -1 | -1 | -1.001 | -1.001 | 50.7% | 50.72 | 2816 | 3.45 | – | Abs. Inf. [1, 11]: 3607
6 | RGDSKIKIQIC | 0,6 | -0,22 | -0.2249 | -0.22 | -0.22 | -0.2249 | -0.2249 | 43.4% | 43.38 | 2699 | 3.431 | -0.22 | –
7 | EIEIQINM | 0,04 | -1,44 | -1.44 | -1.44 | -1.44 | -1.44 | -1.44 | 78.4% | 78.43 | 134 | 2.127 | – | Abs. Inf. [1, 11]: 203.3; Abs. Infection at 0.26 µM ([1]; peptide 0.26 µM, mean of n = 3, Figure 4A): 203.3; Infect 1 0.26 µM ([1]; peptide 0.26 µM, replicate 1, absolute infection signal, Figure 4A): 203.33; Infect 2 0.26 µM ([1]; peptide 0.26 µM, replicate 2, absolute infection signal, Figure 4A): 123.33; Infect 3 0.26 µM ([1]; peptide 0.26 µM, replicate 3, absolute infection signal, Figure 4A): 283.33; Abs. Infection at 1.3 µM ([1]; peptide 1.3 µM, mean of n = 3, Figure 4A): 203.3; Infect 1 .3 µM ([1]; peptide 1.3 µM, replicate 1, absolute infection signal, Figure 4A): 253.33; Infect 2 1.3µM ([1]; peptide 1.3 µM, replicate 2, absolute infection signal, Figure 4A): 173.33; Infect 3 1.3 µM ([1]; peptide 1.3 µM, replicate 3, absolute infection signal, Figure 4A): 183.33
8 | QCKAKAQANMWQ | 0,07 | -1,14 | -1.144 | -1.14 | -1.14 | -1.144 | -1.144 | 89.3% | 89.28 | 427.5 | 2.631 | – | Inf. rel. EF-C [1, 12]: 0.1207; Inf. rel. EF-C [1, 13]: 0.1632; Inf. rel. EF-C [1, 14]: 0.09951; Inf. rel. EF-C [1, 15]: 0.09928; Abs. Inf. / RLU s-1 [1]: 2767 RLU s-1; Abs. Inf. [1, 16]: 2767; Log10 Inf. rel. to EF-C [1]: -1.144; Inf. rel. EF-C [1, 17]: 0.07; CR / % [2, 18]: 89%
9 | CEIEIQINM | 0,07 | -1,19 | -1.186 | -1.19 | -1.19 | -1.186 | -1.186 | 43% | 43 | 58.43 | 1.767 | – | –
10 | CKAKAQA | 0,03 | -1,5 | -1.501 | -1.5 | -1.5 | -1.501 | -1.501 | 44% | 44 | 362.7 | 2.56 | – | –
11 | RGDCKFKFQF | 0,15 | -0,82 | -0.8186 | -0.82 | -0.82 | -0.8186 | -0.8186 | 85.5% | 85.47 | 1338 | 3.1264 | -0.82 | –
12 | QCKAKAQANM | 0,01 | -1,83 | -1.835 | -1.83 | -1.83 | -1.835 | -1.835 | 55.9% | 55.94 | 204.1 | 2.31 | – | Inf. rel. EF-C [1, 12]: 0.02465; Inf. rel. EF-C [1, 13]: 0.03504; Inf. rel. EF-C [1, 14]: 0.01727; Inf. rel. EF-C [1, 15]: 0.02164; Abs. Inf. / RLU s-1 [1]: 563 RLU s-1; Abs. Inf. [1, 16]: 563.3; Inf. rel. EF-C [1, 17]: 0.01; CR / % [2, 18]: 56%
13 | CKIKIQINM | 1,59 | 0,2 | 0.2012 | 0.2 | 0.2 | 0.2012 | 0.2012 | 75.5% | 75.5 | 4228 | 3.626 | 0.2 | –
14 | CKAKAQANM | 0,03 | -1,5 | -1.504 | -1.5 | -1.5 | -1.504 | -1.504 | 47.9% | 47.87 | 207.3 | 2.317 | – | Inf. rel. EF-C [1, 12]: 0.01839; Inf. rel. EF-C [1, 13]: 0.01398; Inf. rel. EF-C [1, 14]: 0.02152; Inf. rel. EF-C [1, 15]: 0.01966; Abs. Inf. / RLU s-1 [1]: 430 RLU s-1; Abs. Inf. [1, 16]: 430; Log10 Inf. rel. to EF-C [1]: -1.504; Inf. rel. EF-C [1, 17]: 0.03; CR / % [2, 18]: 48%
